{
  "source": "patent US4861771A",
  "about": "“Carbamates of 6-chloro-7,8-dihydroxy-1-(4'-hydroxyphenyl)-2,3,4,5-tetrahydro-1H-3-benz azepine as prodrugs” (priority 1989, dated 1989)",
  "key": {"renal blood flow": {"test_system": "renal blood flow", "experiment": "renal blood flow in chronically instrumented (flow probe) dogs", "assay_type": "in vivo, female mongrel dogs", "conditions": "oral", "from_the_text": "(§1) The renal blood flow of the compounds of Formula 1 was readily measured in female mongrel dogs which underwent chronic implantation of a renal flow probe and arterial Vascular-Acess-Port. Briefly, the dogs were anesthetizied and using standard asceptic techniques, a Transonic flow probe was placed around the left renal artery and the connector tunneled subcutaneously to the back of the dog. The Vascular-Access-Port was placed in the left femoral artery and the access portion tacked to the underlying muscle in the area of the paralumbar-fossa. The patency of the Vascular Access Port was maintained by weekly flushing of the catheter and locking with a 50% glucose 500 U/ml heparinized solution. Dogs were trained to lie quietly restrained on a board and the connector portion of the flow probe was exteriorized under local anesthesia and connected to a Transonic flowmeter. Renal blood flow was recorded continuously on a Gilson chart recorder. Mean arterial pressure was monitored directly from the Vascular-Access-Port using a 23 gauge butterfly. Mean arterial blood pressure and renal blood flow were recorded before and for 6 hr. after the oral or i.v. administration of the R-enantiomers of the parent compound (fenoldopam) and the prodrug of fenoldopam. At the end of the experiment, the flow probe connector was returned to its subcutaneous position and the skin incision closed with chromic gut and skin staples. The VAP was again flushed and a fresh heparin glucose lock established. Standard sterile procedures followed during the removal and replacement of the flow probe connector.\nThe effect was transient and renal blood flow had returned to control values within 60 minutes."}, "[1]": {"experiment": "plasma fenoldopam levels in dogs", "assay_type": "in vivo, female mongrel dogs", "from_the_text": "as §1\nDuring the experiment post drug blood samples were withdrawn periodically in order to determine the plasma levels of the parent drug, i.e., fenoldopam plasma levels."}, "[2]": {"conditions": "cited from earlier work"}},
  "note": "Structures can show the parent of a compound that is named as a salt.",
  "data": [
    {"smiles": "CCNC(=O)Oc1ccc([C@H]2CNCCc3c2cc(OC(=O)NCC)c(OC(=O)NCC)c3Cl)cc1", "note": "[Example 3, (R)-6-chloro-7,8-diethylcarbamoyl-(4'-ethylcarbamoylphenyl)-2,3,4,5-tetrahydro-1H-3-benzazepine hydrochloride]", "values": [
      {"measurement": "duration of sustained increase in renal blood flow", "setting": "renal blood flow; dogs", "value": "4 to 6", "unit": "h"},
      {"measurement": "duration of sustained increase in plasma fenoldopam", "setting": "[1]; oral, dogs", "value": "4 to 6", "unit": "h"}
    ]},
    {"smiles": "Oc1ccc([C@H]2CNCCc3c2cc(O)c(O)c3Cl)cc1", "note": "[R-6-chloro-7,8-dihydroxy-1-(4'-hydroxyphenyl)-2,3,4,5-tetrahydro-1H-3-benzazepine]", "values": [
      {"measurement": "renal blood flow effect in words", "setting": "renal blood flow; 4 dogs", "value": "transient"},
      {"measurement": "time for renal blood flow to return to control values", "setting": "renal blood flow; 4 dogs", "value": "≤ 60", "unit": "min"},
      {"measurement": "increase in renal blood flow", "setting": "renal blood flow; 4 dogs, significant increase", "value": 80, "unit": "%"},
      {"measurement": "Tmax", "setting": "[1]; dog, plasma, oral, 4 dogs, read-out: time of peak plasma fenoldopam level (converted)", "value": 5, "unit": "min"}
    ]},
    {"smiles": "Oc1ccc(C2CNCCc3c2cc(O)c(O)c3Cl)cc1", "note": "(centres unmarked) [fenoldopam, 6-chloro-7,8-dihydroxy-1-(4-hydroxyphenyl) 2,3,4,5-tetrahdyro-1H-3-benzazepine]", "values": [
      {"measurement": "half-life", "setting": "[1]; dog, plasma, after oral administration of fenoldopam, dogs", "value": 12, "unit": "min"},
      {"measurement": "initial peak plasma level", "setting": "[2]; in vivo, po", "value": "initial high peak plasma level"},
      {"measurement": "bioavailability", "setting": "[2]; oral", "value": "low"},
      {"measurement": "first pass metabolism", "setting": "[2]; oral", "value": "high"},
      {"measurement": "half life", "setting": "[2]; reportedly", "value": "short"}
    ]}
  ]
}
